In patent EP0180581B2, “DRUG PREPARATIONS OF REDUCED TOXICITY” (THE LIPOSOME COMPANY, INC., priority 1984, dated 1985):
Read-outs that look alike come from different tables or passages of the source.

Key:
[1] = tested on: Swiss Webster mice; assay: LD50 of aminoglycoside antibiotics with and without phosphorylcholine, subcutaneous; type: in vivo; details: mg aminoglycoside antibiotic per kg body weight, survivors after 24 hours
Procedure: (§1) In order to determine the LD₅₀ of the aminoglycoside preparations a quantity of antibiotic was dissolved in 20 m| distilled water with or without phosphorylcholine to achieve a final 1:3 molar ratio of antibiotic to ligand. Then, 0.6 m| aliquots of serial dilutions of the aminoglycoside preparations were injected subcutaneously into Swiss Webster mice (ten animals per group, average weight 23 g each). After 24 hours the number of survivors in each group was determined and the LD₅₀ and 95% confidence limits for each were computed according to the Spearman-Karber Method for Quantal Data (from Finney, 1952, Statistical Method in Biological Assay, Hafner Pub. Co., New York).

[2] = tested on: mice; assay: Acute toxicity of streptomycin-ligand preparations, subcutaneous (Table II); type: in vivo; details: for effectiveness in reducing the toxicity of streptomycin: ligand mixed with streptomycin (1:3 or 1:1 molar ratio), 1000 mg streptomycin per kg subcutaneously in mice
[3] = LD50 of aminoglycoside antibiotics with and without phosphorylcholine, subcutaneous; type: in vivo; details: mouse, in vivo, sc, mg aminoglycoside antibiotic per kg body weight, Swiss Webster mice, survivors after 24 hours, read-out: LD₅₀
Procedure: as §1

[4] = tested on: patients; details: cited from earlier work
[5] = tested on: Swiss Webster mice; assay: Toxicity (lethality) of streptomycin administered with and without ligand, subcutaneous; type: in vivo; details: streptomycin 1000 mg/kg subcutaneously, ligand 1:3 molar ratio, mixed immediately prior to administration
[6] = in vitro; cited from earlier work
[7] = tested on: L cells; assay: Cloning efficiency of L cells; type: cell-based
Procedure: Plastic petri dishes (35 mm diameter) were seeded with 50 L-cells per dish in 2 m| MEM plus 10% fetal calf serum containing one of the amphotericin B preparations (2 dishes per amphotericin B preparation). The dishes were incubated for 10 days and the cloned cultures were stained with crystal violet as described above.

[8] = tested on: C. albicans; assay: Minimum inhibitory concentration for C. albicans; type: cell-based; details: 50% growth inhibition, overnight at 35° C
Procedure: The minimum inhibitory concentration (M.I.C.) of the amphotericin B preparations for C. albicans was determined as follows: each of the 5 preparations was serially diluted in a 96 round-bottomed well plate, using 1/2 step dilutions of drug in 50 »| Mico-broth per well and 3 wells for each dilution step. After dilutions were completed, each well received 50 »| broth containing 10³ cells of C. albicans. Plates were incubated overnight at 35° C in a humidified atmosphere.

[9] = tested on: L-cells; assay: Cytotoxicity for L-cells (50% growth inhibition); details: 72 hours at 37°C
[10] = tested on: erythrocytes; assay: Hemolytic effect on erythrocytes (released hemoglobin); type: cell-based
[11] = tested on: male Swiss-Webster mice; details: mouse, in vivo, iv, 400 mg/kg
Procedure: Six male Swiss-Webster mice weighing 27 gms each were given a single intravenous injection of 400 mg/kg PEG-cholesterol.

[12] = tested on: L-cells; details: mouse, 72 h
[13] = AmB preparations at 25 @g amphotericin B/m| medium, 10 days

Question: With Gentamycin as the molecule, how does the LD₅₀ [1] read?
Answer: 692 mg/kg

Question: For Neomycin, which LD₅₀ [1] is on record?
Answer: 371 mg/kg

Question: For `O=P(O)(O)O[C@H]1[C@H](OP(=O)(O)O)[C@@H](OP(=O)(O)O)[C@H](OP(=O)(O)O)[C@@H](OP(=O)(O)O)[C@H]1OP(=O)(O)O` [inositol hexaphosphate], which “effectiveness in reducing the toxicity of streptomycin” value [2] is on record?
Answer: very effective in reducing the toxicity of streptomycin

Question: For egg lysophosphatidylcholine, which “effectiveness in reducing aminoglycoside toxicity” value ([2]; mouse, in vivo) is on record?
Answer: very effective in reducing aminoglycoside toxicity

Question: For `NCCOP(=O)(O)O` [phosphorylethanolamine], which “effectiveness in reducing aminoglycoside toxicity” value ([2]; general statement on ligands) is on record?
Answer: less effective

Question: Which “effectiveness in reducing aminoglycoside toxicity” value ([2]; general statement on ligands) does the source give for `C[N+](C)(C)CCOP(=O)(O)O` [phosphorylcholine] here?
Answer: very effective in reducing aminoglycoside toxicity

Question: And the “effectiveness in reducing the toxicity of streptomycin” value [2]?
Answer: very effective in reducing the toxicity of streptomycin

Question: Which LD50 at 24 h [3] does the source give for `[H]/N=C(/N)N[C@H]1[C@H](O)[C@@H](O)[C@H](O[C@@H]2O[C@@H](C)[C@](O)(C=O)[C@H]2O[C@@H]2O[C@@H](CO)[C@H](O)[C@@H](O)[C@@H]2NC)[C@@H](N/C(N)=N\[H])[C@@H]1O` [Streptomycin, streptomycin] here?
Answer: 741 mg/kg

Question: And the “patients manifesting some vestibular disturbance” value ([4]; 2g daily for 60 to 120 days)?
Answer: ~75%

Question: What about the “incidence of vestibular disturbance” value ([4]; dose reduced to 1g daily) of the same molecule?
Answer: 25%

Question: And the “Lethality No. Dead/No. Inoculated” value [5]?
Answer: 7/8

Question: And the “Percent Lethality” value [5]?
Answer: 87.5%

Question: With `C[C@@H]1[C@H](O)[C@@H](C)/C=C/C=C/C=C/C=C/C=C/C=C/C=C/[C@H](O[C@@H]2O[C@H](C)[C@@H](O)[C@H](N)[C@@H]2O)C[C@@H]2O[C@](O)(C[C@@H](O)C[C@@H](O)[C@H](O)CC[C@@H](O)C[C@@H](O)CC(=O)O[C@H]1C)C[C@H](O)[C@H]2C(=O)O` [amphotericin B] as the molecule, how does the “affinity for ergosterol compared to cholesterol” value [6] read?
Answer: approximately ten times greater affinity

Question: Which results are given for deoxycholate [DOC]?
Answer: Number of Clones, % of Control [7, 13]: 70.8%; Number of Clones, Number of Colonies [7, 13]: 68; Size of Colonies, % of Control [7, 13]: 92%; Size of Colonies, Mean Diameter [7, 13]: 2.3; Minimum Inhibitory Concentration of Amphotericin B, C. albicans [8]: 5,000+ @g/m|; Minimum Inhibitory Concentration of Amphotericin B, L cells [9]: 250.0 @g/m|; OD550nm ([10]; concentration 1 @g/m|, 2% erythrocytes, 37°C, 20 hours): 0.03; OD550nm ([10]; concentration 2 @g/m|, 2% erythrocytes, 37°C, 20 hours): 0.03; OD550nm ([10]; concentration 2.5 @g/m|, 2% erythrocytes, 37°C, 20 hours): 0.03; OD550nm ([10]; concentration 15 @g/m|, 2% erythrocytes, 37°C, 20 hours): 0.03; OD550nm ([10]; concentration 30 @g/m|, 2% erythrocytes, 37°C, 20 hours): 0.03; OD550nm ([10]; concentration 60 @g/m|, 2% erythrocytes, 37°C, 20 hours): 0.06; OD550nm ([10]; concentration 125 @g/m|, 2% erythrocytes, 37°C, 20 hours): 0.23; OD550nm ([10]; concentration 250 @g/m|, 2% erythrocytes, 37°C, 20 hours): 0.47

Question: With “polyethylene glycol-cholesterol [PEG-Chol]” as the molecule, how does the “overt signs of toxicity” value [11] read?
Answer: No overt signs of toxicity

Question: What about the “Number of Clones, Number of Colonies” value [7] of the same molecule?
Answer: 83

Question: What about the “Size of Colonies, Mean Diameter” value [7] of the same molecule?
Answer: 2.5

Question: And the “Number of Clones, % of Control” value ([7]; mouse, l cells, 240 h)?
Answer: 86.5%

Question: And the “Size of Colonies, % of Control” value ([7]; mouse, l cells, 240 h)?
Answer: 100%

Question: And the “Minimum Inhibitory Concentration of Amphotericin B, C. albicans” value [8]?
Answer: 25,000+ @g/m|

Question: And the “Minimum Inhibitory Concentration of Amphotericin B, L cells” value [12]?
Answer: 500.0+ @g/m|

Question: What about the OD550nm [10] of the same molecule?
Answer: 0.03

Question: For `C[N+](C)(C)CCOP(=O)([O-])OC[C@H](O)CO` [glycerolphosphorylcholine], which “effectiveness in reducing aminoglycoside toxicity” value ([2]; general statement on ligands) is on record?
Answer: less effective
